This is an account of results in US20090012177A1, “Treatment of psychiatric disorders using entacapone, tolcapone and other COMT inhibitor or MB-COMT inhibitor drugs” (priority 2006, published 2009).

The conditions of data set [1]: cited from earlier work.
The subject of the next data set is primates. Particulars: cited from earlier work.
Another data set deals with rats. As to conditions: cited from earlier work.
Data set [2] has as its system prefrontal cortex functions. As to conditions: subjects with the Val/Val genotype; cited from earlier work.
For data set [3] the following is noted: in vivo; cited from earlier work.
Data set [4] deals with patients with SCZ, BD, Major depression and drug dependency. Description: Clinical studies of entacapone in more than 100 patients, evaluated with the CGI scale. The data set is classed as in vivo, human. Here is the method:
This new therapeutic application was determined in patients (Men/women) in single-drug and combination drug therapy. 100 patients were treated at a dose range of 3-10-mg/kg day (50 mg/day-800 mg/day) orally for period of 12 weeks and continued for as long as patients consented averaged 12 months or more.
The drug efficacy was evaluated using the CGI (Clinical Global Impression) scale. This is a simple tool that is clinically understandable, has proven to be a robust measure of efficacy in drug treatment trial and is highly sensitive to change of clinical status.

For data set [5] the following is noted: administered in conjunction; cited from earlier work.
In data set [6] the test system is patients with drug dependency. Description: Illustrative case reports: six cases of drug dependency. The data set is classed as in vivo, human.
Another data set relates to patient with BD. Description: Illustrative case report: a case of BD. It is filed as in vivo, human. As to conditions: 400 mg/day, follow up. The source says:
Married person, a hedge fund investment manager with history of BD who has had temporary partial response to antidepressants but mainly resulting in exacerbation symptoms of anxiety, relapse to a depression or cycling to mania. They were intolerant of atypical antipsychotics with potential antidepressant effect (Ziprasidone, Aripiprazole and Quetiapine) either as mono therapy or combined with Lithium or Lamotrigine. […] They reported oil Lithium their “up and down swings were better” but complained their depression was not resolved and they were not happy. They also complained of lack of motivation, trouble with concentration, getting easily overwhelmed with their job, inability to feel joy, overall lack of interest in everything, not knowing what to do with themself, gave up on all hobbies, feeling being all consumed, excessive day time napping, feeling bored especially when their time would be unstructured on week end, loss of their spontaneity and resorting to procrastination, They went to an exotic vacation in Caribbean with their spouse with the hope to bounce back. But as they reported they were not able to enjoy their vacation, complained feeling “being stuck at the low bottom and strongly believed they would never come out of it”. They had started to do Marijuana with the hope to improve their mood. They were preoccupied with getting a gun and shoots themself. […]

With `Cc1ccc(C(=O)c2cc(O)c(O)c([N+](=O)[O-])c2)cc1` [Tolcapone], the tolerability result in [1] (human, in vivo) was “well tolerated drug with no major side effects”. Moreover, the hepatic failure entry in data set [1] (reported in Europe in the early years of use) was “three cases of hepatic failure”. Also, the “extradimensional set shifting performance mediated by prefrontal cortex catecholamines” value with primates and in the data set with rats was “significantly improved” throughout.
On to `CC(N)Cc1ccccc1` (stereo not shown) [amphetamine], for which the “efficiency of prefrontal cortex functions in working memory tasks” value in [2] is on record as “enhanced”.
Regarding `CCN(CC)C(=O)/C(C#N)=C/c1cc(O)c(O)c([N+](=O)[O-])c1` [entacapone], in data set [1] (human, in vivo), the common side effects result was “gastrointestinal problems, including diarrhea, nausea and abdominal pains”; the “safety profile relative to tolcapone” value is reported as “much better safety profile”. Further, the “most frequent undesirable effects” value in data set [1] (related to increased effects of L-DOPA, beginning of treatment) is recorded as “involuntary movements (dyskinesias)”. In addition, in data set [3], the “blood brain barrier penetration relative to tolcapone” value is “half that of about tolcapone”. Moreover, the “serious events (physical, neurological or psychiatric adverse effects)” value in [4] (during the study, 50-800 mg per day) was “no indication of serious events”. For the same compound, the “cases with improved negative and depressive symptoms (CGI scale)” value in [4] (entacapone (Comtan) 50-800 mg per day, more than 100 patients) is recorded as “more than 60%”. For the same compound, the “effect of discontinuation of treatment on clinical condition” value in data set [4] (in comparison to the pre-treatment status) is given as “did not cause any worsening of the clinical condition”. In addition, the “bioavailability of dopaminergic agents such as L-DOPA” value in [5] is listed as “increases the bioavailability”. In addition, the “duration of abstinence, Case #2” value in data set [6] (cocaine and alcohol dependant, relapsed when entacapone stopped) was found to be 10 months. Besides, the “duration of sobriety, Case #3” value in data set [6] (increased to 400 then 600 mg/day) was determined as 14 months. Further, in the data set on patient with BD, the “duration of maintained effect in BD” value is given as 12 months.
